Earlier results in patent US12357624B2, “Low dose pridopidine for Parkinson's Disease and other diseases associated with parkinsonism” (PRILENIA NEUROTHERAPEUTICS LTD., priority 2019, dated 2025).

Tested on: B104 neuroblastoma cell line
Conditions: NE100 1 μM co-incubated with pridopidine; cited from earlier work

CCCN(CCC)CCc1ccc(OC)c(OCCc2ccccc2)c1 [NE100, reference compound]
BDNF secretion: BDNF secretion was inhibited
